In test [1] the target is human Gal-3 (hGal-3) (Homo sapiens (Human), UniProt P17931). Description: Competitive binding assay: biotinylated hGal-3 to microplate-adsorbed asialofetuin (ASF). The following applies: Activity on hGal-3; binding to ASF-coated plates, 3 hours at 4° C.; mean values. Summed up: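 Biotinylated hGal-3 (300-1000 ng/mL) binding to plate-adsorbed asialofetuin, with DMSO-diluted compound added, incubated 3 h at 4 °C. After washing, bound protein detected with streptavidin-peroxidase (80 ng/mL, 1 h, 4 °C) and ABTS substrate, read spectrophotometrically. IC50 given as mean of several measurements.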
human Gal-3 (hGal-3), sequence (P17931 whole entry): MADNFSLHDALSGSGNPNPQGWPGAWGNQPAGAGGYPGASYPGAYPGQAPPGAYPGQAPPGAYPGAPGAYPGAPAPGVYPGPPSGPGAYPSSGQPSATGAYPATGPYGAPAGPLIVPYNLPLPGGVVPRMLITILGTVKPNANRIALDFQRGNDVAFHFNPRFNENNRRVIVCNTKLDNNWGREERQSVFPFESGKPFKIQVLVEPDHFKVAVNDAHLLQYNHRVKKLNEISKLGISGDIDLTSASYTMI

Test [2] addresses human Gal-1 (hGal-1) (Homo sapiens, UniProt P09382). Put plainly: Competitive binding assay: biotinylated hGal-1 to microplate-adsorbed asialofetuin (ASF). The settings on record: Activities on hGal-1; binding to ASF-coated plates, 3 hours at 4° C.; mean values; read-out: Gal-1 IC50. Summed up: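 Plate-adsorbed asialofetuin is incubated 3 h at 4 °C with biotinylated hGal-1, optionally its all-serine-substituted cysteine variant, plus compound dilutions. ABTS color after 1 h streptavidin-peroxidase (80 ng/mL) at 4 °C reports binding. Reported IC50 is a mean across repeat runs.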

SMILES strings stand for the structures.

The source of these data is patent publication US20230295182A1, “SPIRO DERIVATIVES OF ALPHA-D-GALACTOPYRANOSIDES” (Idorsia Pharmaceuticals Ltd, priority 2020, published 2023).

human Gal-1 (hGal-1), sequence (P09382 2-135 limits assumed): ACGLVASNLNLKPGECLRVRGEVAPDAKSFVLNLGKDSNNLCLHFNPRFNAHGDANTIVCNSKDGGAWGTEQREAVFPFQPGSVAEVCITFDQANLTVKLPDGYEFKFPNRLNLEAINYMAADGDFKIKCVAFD

On to `CO[C@@H]1[C@@H](n2cc(-c3ccc(F)c(F)c3F)nn2)[C@@H](O)[C@@H](CO)O[C@@H]1CC1=NO[C@]2(CC[C@H](C#N)CC2)C1` [Example 1.59, (5r,8R)-3-(((2R,3R,4S,5R,6R)-5-hydroxy-6-(hydroxymethyl)-3-methoxy-4-(4-(2,3,4-trifluorophenyl)-1H-1,2,3-triazol-1-yl)tetrahydro-2H-pyran-2-yl)methyl)-1-oxa-2-azaspiro[4.5]dec-2-ene-8-carbonitrile], for which the IC50 amounted to 130 nM in test [1] and 220 nM in test [2].

For `CO[C@@H]1[C@@H](n2cc(-c3ccc(Cl)c(F)c3F)nn2)[C@@H](O)[C@@H](CO)O[C@@H]1CC1=NO[C@]2(CC[C@@H](C#N)CC2)C1` [Example 1.60, (5s,8S)-3-(((2R,3R,4S,5R,6R)-4-(4-(4-chloro-2,3-difluorophenyl)-1H-1,2,3-triazol-1-yl)-5-hydroxy-6-(hydroxymethyl)-3-methoxytetrahydro-2H-pyran-2-yl)methyl)-1-oxa-2-azaspiro[4.5]dec-2-ene-8-carbonitrile], the IC50 in test [1] was found to be 90 nM; in test [2] it was 1600 nM.

For `CO[C@@H]1[C@@H](n2cc(-c3ccc(Cl)c(F)c3F)nn2)[C@@H](O)[C@@H](CO)O[C@@H]1CC1=NO[C@]2(CC[C@H](C#N)CC2)C1` [Example 1.61, (5r,8R)-3-(((2R,3R,4S,5R,6R)-4-(4-(4-chloro-2,3-difluorophenyl)-1H-1,2,3-triazol-1-yl)-5-hydroxy-6-(hydroxymethyl)-3-methoxytetrahydro-2H-pyran-2-yl)methyl)-1-oxa-2-azaspiro[4.5]dec-2-ene-8-carbonitrile], the IC50 in test [1] was 49 nM; in test [2], 460 nM.

`CO[C@@H]1[C@@H](n2cc(-c3ccc(C)c(F)c3F)nn2)[C@@H](O)[C@@H](CO)O[C@@H]1CC1=NO[C@]2(CC[C@H](C(C)(C)O)CC2)C1` [Example 1.62, (2R,3R,4S,5R,6R)-4-(4-(2,3-difluoro-4-methylphenyl)-1H-1,2,3-triazol-1-yl)-2-(hydroxymethyl)-6-(((5r,8R)-8-(2-hydroxypropan-2-yl)-1-oxa-2-azaspiro[4.5]dec-2-en-3-yl)methyl)-5-methoxytetrahydro-2H-pyran-3-ol]: the 50% inhibitory concentration (IC50) in test [1] was 190 nM; in test [2], 4600 nM.

As for `CO[C@@H]1[C@@H](n2cc(-c3ccc(C)c(F)c3F)nn2)[C@@H](O)[C@@H](CO)O[C@@H]1CC1=NO[C@]2(CC[C@@H](C(C)(C)O)CC2)C1` [Example 1.63, (2R,3R,4S,5R,6R)-4-(4-(2,3-difluoro-4-methylphenyl)-1H-1,2,3-triazol-1-yl)-2-(hydroxymethyl)-6-(((5s,8S)-8-(2-hydroxypropan-2-yl)-1-oxa-2-azaspiro[4.5]dec-2-en-3-yl)methyl)-5-methoxytetrahydro-2H-pyran-3-ol], the IC50 was found to be 180 nM in test [1] and 3400 nM in test [2].

As for `CO[C@@H]1[C@@H](n2cc(-c3ccc(Cl)c(F)c3F)nn2)[C@@H](O)[C@@H](CO)O[C@@H]1CC1=NO[C@]2(CC[C@H](C(C)(C)O)CC2)C1` [Example 1.64, (2R,3R,4S,5R,6R)-4-(4-(4-chloro-2,3-difluorophenyl)-1H-1,2,3-triazol-1-yl)-2-(hydroxymethyl)-6-(((5r,8R)-8-(2-hydroxypropan-2-yl)-1-oxa-2-azaspiro[4.5]dec-2-en-3-yl)methyl)-5-methoxytetrahydro-2H-pyran-3-ol], the IC50 in test [1] amounted to 490 nM; in test [2] it was 2400 nM.

On to `CO[C@@H]1[C@@H](n2cc(-c3ccc(Cl)c(F)c3F)nn2)[C@@H](O)[C@@H](CO)O[C@@H]1CC1=NO[C@]2(CC[C@@H](C(C)(C)O)CC2)C1` [Example 1.65, (2R,3R,4S,5R,6R)-4-(4-(4-chloro-2,3-difluorophenyl)-1H-1,2,3-triazol-1-yl)-2-(hydroxymethyl)-6-(((5s,8S)-8-(2-hydroxypropan-2-yl)-1-oxa-2-azaspiro[4.5]dec-2-en-3-yl)methyl)-5-methoxytetrahydro-2H-pyran-3-ol], for which the IC50 was 120 nM in test [1] and 2700 nM in test [2].

Consider `CO[C@@H]1[C@@H](n2cc(-c3cc(F)c(F)c(F)c3)nn2)[C@@H](O)[C@@H](CO)O[C@@H]1CC1=NOC2(CCC(=O)CC2)C1` [Example 1.66, 3-(((2R,3R,4S,5R,6R)-5-hydroxy-6-(hydroxymethyl)-3-methoxy-4-(4-(3,4,5-trifluorophenyl)-1H-1,2,3-triazol-1-yl)tetrahydro-2H-pyran-2-yl)methyl)-1-oxa-2-azaspiro[4.5]dec-2-en-8-one], for which the IC50 in test [1] turned out to be 250 nM; in test [2], 2700 nM.

`COC(=O)CO[C@@H]1[C@@H](n2cc(-c3cc(F)c(F)c(F)c3)nn2)[C@@H](O)[C@@H](CO)O[C@@H]1CC1=NOC2(CCCCC2)C1` [Example 1.68, methyl 2-(((2R,3R,4S,5R,6R)-2-((1-oxa-2-azaspiro[4.5]dec-2-en-3-yl)methyl)-5-hydroxy-6-(hydroxymethyl)-4-(4-(3,4,5-trifluorophenyl)-1H-1,2,3-triazol-1-yl)tetrahydro-2H-pyran-3-yl)oxy)acetate]: the IC50 stood at 220 nM in test [1] and 3700 nM in test [2].

Regarding `CCO[C@@H]1[C@@H](n2cc(-c3cc(F)c(F)c(F)c3)nn2)[C@@H](O)[C@@H](CO)O[C@@H]1CC1=NOC2(CCCCC2)C1` [Example 1.69, (2R,3R,4S,5R,6R)-6-((1-oxa-2-azaspiro[4.5]dec-2-en-3-yl)methyl)-5-ethoxy-2-(hydroxymethyl)-4-(4-(3,4,5-trifluorophenyl)-1H-1,2,3-triazol-1-yl)tetrahydro-2H-pyran-3-ol], the IC50 was 300 nM in test [1] and 3100 nM in test [2].

With `CNC(=O)CO[C@@H]1[C@@H](n2cc(-c3cc(F)c(F)c(F)c3)nn2)[C@@H](O)[C@@H](CO)O[C@@H]1CC1=NOC2(CCCCC2)C1` [Example 1.70, 2-(((2R,3R,4S,5R,6R)-2-((1-oxa-2-azaspiro[4.5]dec-2-en-3-yl)methyl)-5-hydroxy-6-(hydroxymethyl)-4-(4-(3,4,5-trifluorophenyl)-1H-1,2,3-triazol-1-yl)tetrahydro-2H-pyran-3-yl)oxy)-N-methylacetamide], the figures for the IC50 in test [1] and in test [2] were 240 nM and 5100 nM, respectively.

Turning to `O=C(CO[C@@H]1[C@@H](n2cc(-c3cc(F)c(F)c(F)c3)nn2)[C@@H](O)[C@@H](CO)O[C@@H]1CC1=NOC2(CCCCC2)C1)N1CCOCC1` [Example 1.71, 2-(((2R,3R,4S,5R,6R)-2-((1-oxa-2-azaspiro[4.5]dec-2-en-3-yl)methyl)-5-hydroxy-6-(hydroxymethyl)-4-(4-(3,4,5-trifluorophenyl)-1H-1,2,3-triazol-1-yl)tetrahydro-2H-pyran-3-yl)oxy)-1-morpholinoethan-1-one], the values for the half-maximal inhibitory concentration (IC50) in test [1] and in test [2] were 200 nM and 2900 nM, respectively.

Consider `COC(=O)CO[C@@H]1[C@@H](n2cc(-c3ccc(C)c(F)c3F)nn2)[C@@H](O)[C@@H](CO)O[C@@H]1CC1=NOC2(CCC(F)(F)CC2)C1` [Example 1.72, methyl 2-(((2R,3R,4S,5R,6R)-2-((8,8-difluoro-1-oxa-2-azaspiro[4.5]dec-2-en-3-yl)methyl)-4-(4-(2,3-difluoro-4-methylphenyl)-1H-1,2,3-triazol-1-yl)-5-hydroxy-6-(hydroxymethyl)tetrahydro-2H-pyran-3-yl)oxy)acetate], for which the figures for the IC50 in test [1] and in test [2] were 140 nM and 5600 nM, respectively.

Turning to `NC(=O)O[C@@H]1[C@@H](n2cc(-c3cc(F)c(F)c(F)c3)nn2)[C@@H](O)[C@@H](CO)O[C@@H]1CC1=NOC2(CCCCC2)C1` [Example 1.73, (2R,3R,4S,5R,6R)-2-((1-oxa-2-azaspiro[4.5]dec-2-en-3-yl)methyl)-5-hydroxy-6-(hydroxymethyl)-4-(4-(3,4,5-trifluorophenyl)-1H-1,2,3-triazol-1-yl)tetrahydro-2H-pyran-3-yl carbamate], the IC50 in test [1] was 110 nM; in test [2], 6500 nM.

In the case of `CO[C@@H]1[C@@H](n2cc(-c3ccc(C)c(F)c3F)nn2)[C@@H](O)[C@@H](CO)O[C@@H]1CC1=NO[C@]2(CC[C@H](NCC(F)F)CC2)C1` [Example 1.74, (2R,3R,4S,5R,6R)-4-(4-(2,3-difluoro-4-methylphenyl)-1H-1,2,3-triazol-1-yl)-6-(((5r,8R)-8-((2,2-difluoroethyl)amino)-1-oxa-2-azaspiro[4.5]dec-2-en-3-yl)methyl)-2-(hydroxymethyl)-5-methoxytetrahydro-2H-pyran-3-ol], the IC50 in test [1] was 120 nM; in test [2], 2400 nM.

With `CO[C@@H]1[C@@H](n2cc(-c3ccc(Cl)c(F)c3F)nn2)[C@@H](O)[C@@H](CO)O[C@@H]1CC1=NOC2(C1)CN(C(=O)OC(C)(C)C)C2` [Example 1.80, tert-butyl 7-(((2R,3R,4S,5R,6R)-4-(4-(4-chloro-2,3-difluorophenyl)-1H-1,2,3-triazol-1-yl)-5-hydroxy-6-(hydroxymethyl)-3-methoxytetrahydro-2H-pyran-2-yl)methyl)-5-oxa-2,6-diazaspiro[3.4]oct-6-ene-2-carboxylate], the IC50 in test [1] was determined as 310 nM; in test [2] it was 7200 nM.

As for `CO[C@@H]1[C@@H](n2cc(-c3ccc(C)c(F)c3F)nn2)[C@@H](O)[C@@H](CO)O[C@@H]1CC1=NOC2(C1)CC1CCC2C1` (stereo partly drawn) [Example 1.81, (2R,3R,4S,5R,6R)-6-((4′H-spiro[bicyclo[2.2.1]heptane-2,5′-isoxazol]-3′-yl)methyl)-4-(4-(2,3-difluoro-4-methylphenyl)-1H-1,2,3-triazol-1-yl)-2-(hydroxymethyl)-5-methoxytetrahydro-2H-pyran-3-ol], the IC50 worked out at 60 nM in test [1] and 2370 nM in test [2].
